The record followed here is ChEMBL document CHEMBL3124760, “Inhibitors of NS5A for Treatment of HCV Infection” (ACS Med Chem Lett, 2014).

The structures appear in SMILES notation.

The test has as its system Hepatitis C virus. The experiment in a line: Antiviral activity against Hepatitis C virus genotype 1a expressing neomycin phosphotransferase after 3 days by luciferase reporter gene assay. Format: functional, organism-based, Hepacivirus hominis. As to conditions: subtype 1a, 72 h. (In general: Reporter assays use an easily measured gene product as a stand-in for the process of interest.)
As to `COC(=O)N[C@H](C(=O)N1CC2(C[C@H]1c1nc3cc(-c4ccc5cc(-c6cnc([C@@H]7C[C@H]8C[C@H]8N7C(=O)[C@@H](NC(=O)OC)C(C)C)[nH]6)ccc5c4)ccc3c(=O)[nH]1)OCCCO2)C(C)C`, the concentration giving a half-maximal response (EC50) came out at 26 pM. `COC(=O)N[C@H](C(=O)N1CCC[C@H]1c1nc2cc(-c3ccc4cc(-c5cnc([C@@H]6C[C@H]7C[C@H]7N6C(=O)[C@@H](NC(=O)OC)C(C)C)[nH]5)ccc4c3)ccc2c(=O)[nH]1)C(C)C` displayed an EC50 of 6 pM. As for `COC(=O)N[C@H](C(=O)N1CCC[C@H]1c1ncc(-c2ccc3cc(-c4ccc5c(=O)[nH]c([C@@H]6C[C@@H]7CCCC[C@@H]7N6C(=O)[C@@H](NC(=O)OC)C(C)C)nc5c4)ccc3c2)[nH]1)C(C)C`, the response was half-maximal at 6 pM (EC50). Compound `COC(=O)N[C@H](C(=O)N1CC2(C[C@H]1c1ncc(-c3ccc4cc(-c5ccc6c(=O)[nH]c([C@@H]7C[C@H]8C[C@H]8N7C(=O)[C@@H](NC(=O)OC)C(C)C)nc6c5)ccc4c3)[nH]1)OCCO2)C(C)C` gave an EC50 of 8 pM.

By EC50 is commonly meant the midpoint of the concentration-response curve. Low readings indicate higher potency in that assay, high ones lower potency in that assay.
